Measured values: ChEMBL document CHEMBL1250451, “Mechanistic insights into a Ca2+-dependent family of alpha-mannosidases in a human gut symbiont” (Nat Chem Biol, 2010)
Activity calls are given as the source filed them. No cut-off for these calls is given here.

Tests used:
Format in all cases: protein assay
[1] = molecular target: T1, Alpha-1,2-mannosidase (BT_1769) (Bacteroides thetaiotaomicron) (UniProt Q8A6V7); experiment: Activity of Bacteroides thetaiotaomicron GH92 alpha-mannosidase GH92 alpha-mannosidase 1769 assessed as mannose release at 1 mM after 16 hrs by HPLC relative to untreated control after 16 hrs by HPLC
T1 sequence (whole entry): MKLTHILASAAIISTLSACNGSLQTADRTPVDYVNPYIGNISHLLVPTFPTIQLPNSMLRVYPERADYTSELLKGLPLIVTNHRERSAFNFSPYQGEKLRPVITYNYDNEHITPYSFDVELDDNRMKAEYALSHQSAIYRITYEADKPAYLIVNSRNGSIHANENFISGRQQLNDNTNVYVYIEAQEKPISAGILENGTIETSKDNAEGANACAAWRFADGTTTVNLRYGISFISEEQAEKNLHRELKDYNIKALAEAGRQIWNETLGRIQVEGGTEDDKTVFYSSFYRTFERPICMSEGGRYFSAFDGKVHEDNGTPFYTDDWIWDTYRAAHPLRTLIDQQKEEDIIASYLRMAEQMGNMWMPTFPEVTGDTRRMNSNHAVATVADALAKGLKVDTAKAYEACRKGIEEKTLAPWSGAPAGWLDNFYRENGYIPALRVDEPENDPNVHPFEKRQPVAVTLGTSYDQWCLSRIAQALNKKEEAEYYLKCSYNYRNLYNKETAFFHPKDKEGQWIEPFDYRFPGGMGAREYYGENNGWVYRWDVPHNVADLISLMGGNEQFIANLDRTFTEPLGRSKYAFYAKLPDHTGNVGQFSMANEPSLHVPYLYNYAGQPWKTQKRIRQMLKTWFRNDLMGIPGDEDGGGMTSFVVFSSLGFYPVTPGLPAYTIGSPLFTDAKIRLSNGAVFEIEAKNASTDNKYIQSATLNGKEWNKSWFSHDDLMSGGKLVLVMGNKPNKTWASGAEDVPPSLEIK

[2] = molecular target: T2, Alpha-1,2-mannosidase (BT_3530) (Bacteroides thetaiotaomicron) (UniProt Q8A1X8); experiment: Activity of Bacteroides thetaiotaomicron GH92 alpha-mannosidase GH92 alpha-mannosidase 3530 assessed as mannose release at 1 mM after 16 hrs by HPLC relative to untreated control after 16 hrs by HPLC
T2 sequence (whole entry): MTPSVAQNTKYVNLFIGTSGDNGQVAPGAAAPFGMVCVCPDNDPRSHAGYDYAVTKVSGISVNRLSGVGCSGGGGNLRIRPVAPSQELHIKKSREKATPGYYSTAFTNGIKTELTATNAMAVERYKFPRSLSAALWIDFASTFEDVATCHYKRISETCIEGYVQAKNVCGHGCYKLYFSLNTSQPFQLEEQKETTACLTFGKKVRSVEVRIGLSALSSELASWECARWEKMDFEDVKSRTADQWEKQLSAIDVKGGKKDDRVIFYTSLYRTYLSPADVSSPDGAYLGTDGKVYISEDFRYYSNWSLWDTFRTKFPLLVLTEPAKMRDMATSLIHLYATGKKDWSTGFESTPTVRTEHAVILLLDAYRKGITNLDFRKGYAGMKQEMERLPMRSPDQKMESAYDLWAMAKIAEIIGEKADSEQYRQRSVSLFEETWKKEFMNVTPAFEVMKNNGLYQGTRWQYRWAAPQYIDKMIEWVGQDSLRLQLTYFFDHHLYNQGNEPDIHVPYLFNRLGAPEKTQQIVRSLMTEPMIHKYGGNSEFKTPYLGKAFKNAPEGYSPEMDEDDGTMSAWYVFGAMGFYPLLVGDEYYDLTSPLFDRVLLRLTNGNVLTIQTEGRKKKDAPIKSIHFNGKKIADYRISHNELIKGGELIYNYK

[3] = molecular target: T3, Alpha-1,2-mannosidase (BT_3965) (Bacteroides thetaiotaomicron) (UniProt Q8A0Q6); experiment: Activity of Bacteroides thetaiotaomicron GH92 alpha-mannosidase GH92 alpha-mannosidase 3965 assessed as mannose release at 1 mM after 16 hrs by HPLC relative to untreated control after 16 hrs by HPLC
T3 sequence (whole entry): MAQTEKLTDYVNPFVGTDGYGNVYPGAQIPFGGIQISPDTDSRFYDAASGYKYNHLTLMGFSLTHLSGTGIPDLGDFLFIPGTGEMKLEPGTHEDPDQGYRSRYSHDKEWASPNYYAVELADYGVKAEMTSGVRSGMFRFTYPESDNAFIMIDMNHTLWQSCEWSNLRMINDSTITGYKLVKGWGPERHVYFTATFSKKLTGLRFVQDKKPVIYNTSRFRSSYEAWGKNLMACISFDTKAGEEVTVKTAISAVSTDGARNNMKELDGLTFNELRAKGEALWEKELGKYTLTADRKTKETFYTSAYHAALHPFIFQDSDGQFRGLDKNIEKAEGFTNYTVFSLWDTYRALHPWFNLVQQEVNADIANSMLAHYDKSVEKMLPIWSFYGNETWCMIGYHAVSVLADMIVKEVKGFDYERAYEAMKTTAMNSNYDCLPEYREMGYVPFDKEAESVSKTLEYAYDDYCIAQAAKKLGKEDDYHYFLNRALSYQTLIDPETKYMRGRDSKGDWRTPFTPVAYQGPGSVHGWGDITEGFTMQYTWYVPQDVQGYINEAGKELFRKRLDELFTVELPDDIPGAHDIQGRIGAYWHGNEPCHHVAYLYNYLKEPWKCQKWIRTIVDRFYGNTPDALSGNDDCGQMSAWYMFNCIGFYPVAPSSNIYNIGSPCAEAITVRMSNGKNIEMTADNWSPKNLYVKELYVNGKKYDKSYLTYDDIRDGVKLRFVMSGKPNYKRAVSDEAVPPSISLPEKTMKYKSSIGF

Row | Structure (SMILES) | Activity [1] | Activity [2] | Activity [3]
1 | OC[C@H]1O[C@H](O[C@H]2[C@@H](O)[C@H](O)[C@@H](CO)O[C@@H]2O)[C@@H](O)[C@@H](O)[C@@H]1O | 0.0023% | inactive | 0.27%
2 | OC[C@H]1O[C@H](OC[C@H]2O[C@H](O)[C@@H](O)[C@@H](O)[C@@H]2O)[C@@H](O)[C@@H](O)[C@@H]1O | inactive | inactive | 0.64%
3 | OC[C@H]1O[C@H](O[C@@H]2[C@H](O)[C@@H](O)O[C@H](CO)[C@H]2O)[C@@H](O)[C@@H](O)[C@@H]1O | – | 58% | 0.09%
4 | OC[C@H]1O[C@H](O[C@H]2[C@H](O)[C@H](O)[C@@H](O)O[C@@H]2CO)[C@@H](O)[C@@H](O)[C@@H]1O | 0.026% | 100% | 100%
